Test results reported in ChEMBL document CHEMBL2010741, “Synthesis and evaluation of a new series of 1'-cyclobutyl-6-(4-piperidyloxy)spiro[benzopyran-2,4'-piperidine] derivatives as high affinity and selective histamine-3 receptor (H3R) antagonists” (Bioorg Med Chem Lett, 2012).
pIC50, pKi: −log10 of the molar value.

Legend:
Cytochrome P450 2C19 = Cytochrome P450 2C19 (Homo sapiens, UniProt P33261); assay: Inhibition of CYP2C19; type: ADME
Histamine H3 receptor [1] = biological target: T1, Histamine H3 receptor (Homo sapiens, UniProt Q9Y5N1); assay: Displacement of [3H]-N-alpha-methylhistamine from human cloned histamine H3 receptor expressed in CHO cells; type: cell-based
[2] = Half life in mouse liver microsomes; type: ADME, Microsome
Cytochrome P450 2D6 = Cytochrome P450 2D6 (Homo sapiens, UniProt P10635); assay: Inhibition of CYP2D6; type: ADME
[3] = Half life in dog liver microsomes; type: ADME, Canis lupus familiaris, Microsome
[4] = Half life in human liver microsomes; type: ADME, Microsome
Histamine H3 receptor [5] = biological target: Histamine H3 receptor (Rattus norvegicus, UniProt Q9QYN8); assay: Displacement of [3H]N-alpha-methylhistamine from rat cloned histamine H3 receptor expressed in CHO cells; type: cell-based
Cytochrome P450 3A4 = Cytochrome P450 3A4 (Homo sapiens, UniProt P08684); assay: Inhibition of CYP3A4; type: ADME
Cytochrome P450 1A2 = biological target: T2, Cytochrome P450 1A2 (Homo sapiens, UniProt P05177); assay: Inhibition of CYP1A2; type: ADME
T2 sequence (P05177 whole entry): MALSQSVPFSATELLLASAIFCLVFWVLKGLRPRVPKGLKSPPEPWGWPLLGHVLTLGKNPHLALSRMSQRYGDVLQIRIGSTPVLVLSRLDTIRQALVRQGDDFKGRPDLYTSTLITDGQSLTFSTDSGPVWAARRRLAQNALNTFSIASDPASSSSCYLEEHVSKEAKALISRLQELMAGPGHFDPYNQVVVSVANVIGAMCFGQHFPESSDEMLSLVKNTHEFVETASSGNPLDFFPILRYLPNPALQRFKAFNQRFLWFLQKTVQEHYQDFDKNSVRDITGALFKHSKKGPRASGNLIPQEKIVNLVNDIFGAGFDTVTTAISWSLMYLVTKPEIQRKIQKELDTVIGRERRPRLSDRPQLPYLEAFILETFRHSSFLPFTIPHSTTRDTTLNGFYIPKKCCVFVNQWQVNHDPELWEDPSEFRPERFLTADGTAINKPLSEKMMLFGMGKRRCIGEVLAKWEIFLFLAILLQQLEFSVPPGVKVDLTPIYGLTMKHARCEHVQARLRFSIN

Cytochrome P450 2C9 = Cytochrome P450 2C9 (Homo sapiens, UniProt P11712); assay: Inhibition of CYP2C9; type: ADME
[6] = Half life in rat liver microsomes; type: ADME, Microsome
[7] = biological target: Histamine H3 receptor (Rattus norvegicus) (UniProt Q9QYN8); details: CHO, 10 uM
Histamine H3 receptor [8] = biological target: T1, Histamine H3 receptor; details: CHO, 10 uM
[9] = AUC (infinity) in rat at 5 mg/kg, po; type: ADME, organism-based; parameters: time infinity, dose 5 mg/kg, route oral; details: plasma
[10] = Cmax in rat at 5 mg/kg, po; type: ADME, organism-based; parameters: dose 5 mg/kg, route oral; details: in vivo
[11] = Oral bioavailability in rat at 5 mg/kg; type: ADME, organism-based; details: in vivo
[12] = Half life in rat at 1 mg/kg, iv; type: ADME, organism-based; parameters: dose 1 mg/kg, route intravenous; details: in vivo
[13] = biological target: Histamine H1 receptor (Homo sapiens) (UniProt P35367); assay: Inhibition of human H1 receptor at 10 uM
[14] = Volume of distribution in rat at 1 mg/kg, iv; type: ADME, organism-based; parameters: dose 1 mg/kg, route intravenous; details: in vivo
[15] = Clearance in rat at 1 mg/kg, iv; type: ADME, organism-based; parameters: dose 1 mg/kg, route intravenous; details: in vivo
[16] = Aqueous solubility of the compound at pH 7.4; type: physicochemical; details: buffer
[17] = biological target: Histamine H4 receptor (Homo sapiens) (UniProt Q9H3N8); assay: Inhibition of human H4 receptor at 10 uM
[18] = Ratio of drug level in brain to plasma of rat at 10 mg/kg, ip after 1 hr; type: ADME, organism-based; parameters: dose 10 mg/kg, route intraperitoneal; details: read-out: BPR
[19] = biological target: Histamine H2 receptor (Homo sapiens) (UniProt P25021); assay: Inhibition of human H2 receptor at 10 uM
Chain of Histamine H2 receptor (Homo sapiens) (P25021 whole entry): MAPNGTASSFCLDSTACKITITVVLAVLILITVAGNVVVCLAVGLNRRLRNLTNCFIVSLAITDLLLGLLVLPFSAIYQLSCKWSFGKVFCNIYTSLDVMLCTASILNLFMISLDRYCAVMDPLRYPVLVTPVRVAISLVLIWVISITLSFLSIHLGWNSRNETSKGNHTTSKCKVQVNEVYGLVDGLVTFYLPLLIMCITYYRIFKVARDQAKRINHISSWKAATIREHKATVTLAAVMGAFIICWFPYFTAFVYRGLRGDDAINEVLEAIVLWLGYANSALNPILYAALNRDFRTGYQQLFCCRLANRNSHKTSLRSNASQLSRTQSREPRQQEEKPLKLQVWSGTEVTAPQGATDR

Chain of Histamine H3 receptor (Rattus norvegicus, UniProt Q9QYN8) (Q9QYN8 whole entry): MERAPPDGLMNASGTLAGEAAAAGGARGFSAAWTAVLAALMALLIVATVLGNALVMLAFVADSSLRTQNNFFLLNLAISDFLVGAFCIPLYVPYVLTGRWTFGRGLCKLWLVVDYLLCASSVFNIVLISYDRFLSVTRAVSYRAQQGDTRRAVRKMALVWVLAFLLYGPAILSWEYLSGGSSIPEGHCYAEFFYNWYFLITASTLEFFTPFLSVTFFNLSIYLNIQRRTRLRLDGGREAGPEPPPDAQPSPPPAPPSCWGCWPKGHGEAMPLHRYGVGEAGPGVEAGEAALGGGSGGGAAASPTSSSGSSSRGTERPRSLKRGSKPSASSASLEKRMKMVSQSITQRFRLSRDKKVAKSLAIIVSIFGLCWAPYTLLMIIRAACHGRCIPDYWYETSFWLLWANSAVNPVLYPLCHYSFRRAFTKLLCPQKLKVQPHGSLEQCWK
Chain of Cytochrome P450 2C9 (P11712 whole entry): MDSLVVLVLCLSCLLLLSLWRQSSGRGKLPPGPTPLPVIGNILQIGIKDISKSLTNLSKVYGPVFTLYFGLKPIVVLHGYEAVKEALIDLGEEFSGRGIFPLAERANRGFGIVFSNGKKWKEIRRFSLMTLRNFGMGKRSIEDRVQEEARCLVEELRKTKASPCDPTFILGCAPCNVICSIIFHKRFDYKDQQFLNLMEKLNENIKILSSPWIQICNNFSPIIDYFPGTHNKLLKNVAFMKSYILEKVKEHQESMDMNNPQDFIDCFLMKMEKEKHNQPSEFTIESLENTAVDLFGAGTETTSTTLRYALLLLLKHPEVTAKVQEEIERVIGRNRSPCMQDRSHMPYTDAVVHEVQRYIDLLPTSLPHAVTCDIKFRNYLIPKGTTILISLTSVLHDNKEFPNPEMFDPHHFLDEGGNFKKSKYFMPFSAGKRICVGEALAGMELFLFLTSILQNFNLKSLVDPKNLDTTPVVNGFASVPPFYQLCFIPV
T1 sequence (Q9Y5N1 whole entry): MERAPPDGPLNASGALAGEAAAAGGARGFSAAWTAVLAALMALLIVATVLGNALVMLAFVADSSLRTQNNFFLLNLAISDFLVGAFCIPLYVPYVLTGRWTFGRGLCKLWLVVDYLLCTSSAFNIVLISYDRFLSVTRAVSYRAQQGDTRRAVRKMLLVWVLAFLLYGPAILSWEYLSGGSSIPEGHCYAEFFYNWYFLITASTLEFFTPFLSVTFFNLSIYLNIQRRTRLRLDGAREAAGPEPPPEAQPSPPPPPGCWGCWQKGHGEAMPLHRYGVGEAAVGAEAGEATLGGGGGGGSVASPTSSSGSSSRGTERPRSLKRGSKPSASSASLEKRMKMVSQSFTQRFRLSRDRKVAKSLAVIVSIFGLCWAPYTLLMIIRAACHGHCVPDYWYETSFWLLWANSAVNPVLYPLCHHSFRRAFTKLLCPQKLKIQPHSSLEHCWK
Chain of Cytochrome P450 2C19 (P33261 whole entry): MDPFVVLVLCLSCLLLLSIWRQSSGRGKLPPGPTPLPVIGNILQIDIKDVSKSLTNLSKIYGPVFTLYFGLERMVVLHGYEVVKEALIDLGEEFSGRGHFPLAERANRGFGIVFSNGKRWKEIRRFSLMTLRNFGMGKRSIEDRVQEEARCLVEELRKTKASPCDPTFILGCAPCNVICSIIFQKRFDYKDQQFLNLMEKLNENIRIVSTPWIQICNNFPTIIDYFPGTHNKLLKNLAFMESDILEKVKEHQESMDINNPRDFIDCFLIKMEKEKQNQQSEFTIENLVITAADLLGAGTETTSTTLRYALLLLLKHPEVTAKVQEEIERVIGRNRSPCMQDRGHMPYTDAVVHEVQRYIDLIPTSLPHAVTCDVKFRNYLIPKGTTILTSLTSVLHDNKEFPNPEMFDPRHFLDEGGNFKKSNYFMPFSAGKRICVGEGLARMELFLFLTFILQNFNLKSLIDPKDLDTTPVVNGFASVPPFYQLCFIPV
Chain of Cytochrome P450 3A4 (P08684 whole entry): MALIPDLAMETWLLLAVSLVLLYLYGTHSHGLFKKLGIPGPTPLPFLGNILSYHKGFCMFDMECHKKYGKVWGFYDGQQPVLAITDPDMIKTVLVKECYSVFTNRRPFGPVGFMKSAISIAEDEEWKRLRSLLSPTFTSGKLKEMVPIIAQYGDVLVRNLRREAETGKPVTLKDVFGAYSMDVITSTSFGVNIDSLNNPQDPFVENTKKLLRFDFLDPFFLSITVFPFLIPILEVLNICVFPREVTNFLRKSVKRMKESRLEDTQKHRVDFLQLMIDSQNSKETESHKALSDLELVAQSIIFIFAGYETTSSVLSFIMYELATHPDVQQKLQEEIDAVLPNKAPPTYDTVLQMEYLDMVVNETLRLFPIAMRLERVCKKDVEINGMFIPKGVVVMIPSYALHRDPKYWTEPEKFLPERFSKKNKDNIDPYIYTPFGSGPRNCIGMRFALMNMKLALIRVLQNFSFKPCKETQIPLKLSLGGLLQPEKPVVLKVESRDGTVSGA
Chain of Cytochrome P450 2D6 (P10635 whole entry): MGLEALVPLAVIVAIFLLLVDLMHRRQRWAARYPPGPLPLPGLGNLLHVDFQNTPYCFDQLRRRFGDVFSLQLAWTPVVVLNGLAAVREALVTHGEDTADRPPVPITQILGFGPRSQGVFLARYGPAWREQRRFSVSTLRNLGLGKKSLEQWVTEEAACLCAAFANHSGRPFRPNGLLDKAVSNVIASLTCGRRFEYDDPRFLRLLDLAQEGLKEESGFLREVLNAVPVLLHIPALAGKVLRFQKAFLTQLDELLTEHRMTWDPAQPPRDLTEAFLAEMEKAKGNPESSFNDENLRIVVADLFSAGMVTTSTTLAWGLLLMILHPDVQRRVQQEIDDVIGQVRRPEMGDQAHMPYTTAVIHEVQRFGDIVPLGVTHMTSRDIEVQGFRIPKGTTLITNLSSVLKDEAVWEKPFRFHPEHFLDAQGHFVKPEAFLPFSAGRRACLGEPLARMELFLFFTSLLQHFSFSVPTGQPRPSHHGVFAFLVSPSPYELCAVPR
Chain of Histamine H3 receptor (Rattus norvegicus) (Q9QYN8 whole entry): as the sequence (Q9QYN8 whole entry) above
Chain of Histamine H1 receptor (Homo sapiens) (P35367 whole entry): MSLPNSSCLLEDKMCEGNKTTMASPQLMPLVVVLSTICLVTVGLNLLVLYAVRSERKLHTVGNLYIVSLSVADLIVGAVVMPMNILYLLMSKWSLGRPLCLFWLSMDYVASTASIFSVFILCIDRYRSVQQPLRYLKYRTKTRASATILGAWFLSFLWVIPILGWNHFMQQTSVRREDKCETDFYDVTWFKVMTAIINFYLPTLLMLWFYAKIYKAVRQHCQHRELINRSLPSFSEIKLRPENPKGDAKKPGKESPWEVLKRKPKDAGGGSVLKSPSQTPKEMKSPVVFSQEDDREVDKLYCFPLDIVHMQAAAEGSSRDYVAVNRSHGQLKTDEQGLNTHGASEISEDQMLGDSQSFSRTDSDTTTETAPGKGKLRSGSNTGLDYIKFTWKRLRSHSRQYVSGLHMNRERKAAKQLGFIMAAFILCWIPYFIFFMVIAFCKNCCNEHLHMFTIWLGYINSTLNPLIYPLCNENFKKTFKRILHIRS

| SMILES | pIC50 (Cytochrome P450 2C19) | pKi (Histamine H3 receptor [1]) | half-life [2] [min] | pIC50 (Cytochrome P450 2D6) | half-life [3] [min] | half-life [4] [min] | pKi (Histamine H3 receptor [5]) | pIC50 (Cytochrome P450 3A4) | pIC50 (Cytochrome P450 1A2) | pIC50 (Cytochrome P450 2C9) | half-life [6] [min] | AUC(0-inf) [9] [ng·h/mL] | Cmax [10] [ng/mL] | bioavailability [11] [%] | half-life [12] [min] | Vd [14] [L/kg] | clearance [15] [mL/min/kg] | solubility [16] [µg/mL] | Kp at 1 h [18] | other results |
| --- | --- | --- | --- | --- | --- | --- | --- | --- | --- | --- | --- | --- | --- | --- | --- | --- | --- | --- | --- | --- |
| Oc1ccc2c(c1)CCC1(CCN(C3CCC3)CC1)O2 | – | < 5.52 | – | – | – | – | < 5.52 | – | – | – | – | – | – | – | – | – | – | – | – | inhibition [7]: 50%; inhibition (Histamine H3 receptor [8]): 50% |
| CC(C)S(=O)(=O)N1CCC(Oc2ccc3c(c2)CCC2(CCN(C4CCC4)CC2)O3)CC1 | – | 8.15 | – | – | – | – | 7.57 | – | – | – | – | – | – | – | – | – | – | – | – | – |
| O=S(=O)(C1CC1)N1CCC(Oc2ccc3c(c2)CCC2(CCN(C4CCC4)CC2)O3)CC1 | < 4.52 | 8.05 | > 40 | < 4.52 | > 40 | > 40 | 7.74 | < 4.52 | < 4.52 | < 4.52 | > 40 | 435 | 76 | 5 | 108 | 1.6 | 10 | > 100 | 2 | – |
| c1cc2c(cc1OC1CCNCC1)CCC1(CCN(C3CCC3)CC1)O2 | – | 8.52 | – | – | – | – | 8.22 | – | – | – | – | – | – | – | – | – | – | – | – | – |

More lines, main results first:

| pIC50 (Cytochrome P450 2C19) | pKi (Histamine H3 receptor [1]) | half-life [2] [min] | pIC50 (Cytochrome P450 2D6) | half-life [3] [min] | half-life [4] [min] | pKi (Histamine H3 receptor [5]) | pIC50 (Cytochrome P450 3A4) | pIC50 (Cytochrome P450 1A2) | pIC50 (Cytochrome P450 2C9) | half-life [6] [min] | AUC(0-inf) [9] [ng·h/mL] | Cmax [10] [ng/mL] | bioavailability [11] [%] | half-life [12] [min] | Vd [14] [L/kg] | clearance [15] [mL/min/kg] | solubility [16] [µg/mL] | Kp at 1 h [18] | SMILES | other results |
| --- | --- | --- | --- | --- | --- | --- | --- | --- | --- | --- | --- | --- | --- | --- | --- | --- | --- | --- | --- | --- |
| < 4.52 | 8.40 | > 40 | < 4.52 | > 40 | > 40 | 8.00 | < 4.52 | < 4.52 | < 4.52 | > 40 | – | – | – | – | – | – | – | – | CC(=O)N1CCC(Oc2ccc3c(c2)CCC2(CCN(C4CCC4)CC2)O3)CC1 | – |
| < 4.52 | 8.15 | > 40 | 4.74 | > 40 | > 40 | 7.77 | < 4.52 | < 4.52 | < 4.52 | > 40 | 392 | 83 | 4 | 36 | 0.5 | 9 | > 100 | 1.5 | CS(=O)(=O)N1CCC(Oc2ccc3c(c2)CCC2(CCN(C4CCC4)CC2)O3)CC1 | inhibition [13]: < 20%; inhibition [17]: < 20%; inhibition [19]: < 20% |
| – | 7.33 | – | – | – | – | 7.40 | – | – | – | – | – | – | – | – | – | – | – | – | CC(C)(C)OC(=O)N1CCC(Oc2ccc3c(c2)CCC2(CCN(C4CCC4)CC2)O3)CC1 | – |
| – | 8.15 | – | – | – | – | 7.62 | – | – | – | – | – | – | – | – | – | – | – | – | CCS(=O)(=O)N1CCC(Oc2ccc3c(c2)CCC2(CCN(C4CCC4)CC2)O3)CC1 | – |
| < 4.52 | 8.22 | > 40 | < 4.52 | > 40 | > 40 | 7.80 | < 4.52 | < 4.52 | < 4.52 | > 40 | 359 | 71 | 8 | 96 | 2.7 | 20 | > 100 | 2.3 | O=C(C1CC1)N1CCC(Oc2ccc3c(c2)CCC2(CCN(C4CCC4)CC2)O3)CC1 | – |
| < 4.52 | 8.70 | > 40 | < 4.52 | > 40 | > 40 | 8.22 | < 4.52 | < 4.52 | < 4.52 | > 40 | 410 | 80 | 9 | 66 | 1.9 | 18 | > 100 | 2.3 | CC(C)C(=O)N1CCC(Oc2ccc3c(c2)CCC2(CCN(C4CCC4)CC2)O3)CC1 | – |
